Among the data in PubChem BioAssay AID624473 (Sanford-Burnham Center for Chemical Genomics, 2012) are IC50 values, retold here.

Where “and” joins values, the source holds several entries; their conditions need not be identical. Equal entries are not always repeated. Calls of active or inactive are those of the source.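 How the source made its calls: active means IC50 at or below 20 µM in the dose response; inactive means the rest.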 Some results are limits rather than exact numbers.

The subject of the assay is HL-1 cardiomyocytes, 2-deoxyglucose injury, ATPlite viability, 2 h. The experiment in a line: protection of HL-1 cells from ATP loss, SAR follow-up, 2-deoxyglucose, set 2 (AID 624473).
For `COc1ccc(N2C(=O)c3ccccc3N3C(=O)c4c(ccc(OC)c4OC)C23)cc1` (stereo not given), the IC50 – broadly, the midpoint of a concentration-inhibition curve – was 18.2 µM.
As for `CC(=O)c1cccc(NC(=O)c2cc(-c3ccccc3)nc3ccccc23)c1`, the figure is 14 µM.
With `CCOC(=O)c1cccc(NC(=O)c2cc(-c3cc(OC)c(OC)c(OC)c3)nc3ccccc23)c1`, the half-maximal inhibitory concentration (IC50) was 4.29 µM.
Take `COc1cccc(NC(=O)c2cc(-c3cc(OC)c(OC)c(OC)c3)nc3ccccc23)c1`: the IC50 is > 79 µM (inactive).
For `COc1ccc2c(c1OC)C(=O)N1c3ccccc3C(=O)N(c3cccc(C)c3)C21` (stereo not given) the value was 16.5 µM.
On to `COc1cc(-c2cc(C(=O)Nc3cccc(C(F)(F)F)c3)c3ccccc3n2)cc(OC)c1OC`, for which the IC50 is > 79 µM (inactive).
On to `O=C1c2ccccc2N2C(=O)c3ccccc3C2N1c1cccc(Br)c1` (stereo not given), for which the IC50 was > 79 µM (inactive).
`COc1cc(-c2cc(C(=O)Nc3ccc(C(C)=O)cc3)c3ccccc3n2)cc(OC)c1OC`: the IC50 was 6.65 µM.
With `COc1cc(-c2cc(C(=O)Nc3cccc(C)c3)c3ccccc3n2)cc(OC)c1OC`, the IC50 is > 79 µM (inactive).
Consider `COc1cccc(CNC(=O)c2cc(-c3ccc(OC)c(OC)c3)nc3ccccc23)c1`, for which the IC50 is 9.42 µM.
Take `COc1ccc2c(c1OC)C(=O)N1c3ccccc3C(=O)N(c3cccc(Cl)c3)C21` (stereo not given): the half-inhibitory concentration (IC50) was 7.57 µM.
For `COc1ccc(-c2cc(C(=O)Nc3cccc(C(C)=O)c3)c3ccccc3n2)cc1` the value was > 79 µM (inactive).
For `COc1cccc(N2C(=O)c3ccccc3N3C(=O)c4ccccc4C23)c1` (stereo not given) the value was > 79 µM (inactive); for `COc1ccc2c(c1OC)C(=O)N1c3ccccc3C(=O)N(Cc3ccccc3Cl)C21` (stereo not given), 4 µM.
Consider `COc1cc(-c2cc(C(=O)Nc3cccc(Cl)c3)c3ccccc3n2)cc(OC)c1OC`, for which the IC50 is > 79 µM (inactive).
Take `O=C1c2ccccc2N2C(=O)c3ccccc3C2N1c1ccccc1` (stereo not given): the IC50 is > 79 µM (inactive).
For the molecule `COc1ccc2c(c1OC)C(=O)N1c3ccccc3C(=O)N(Cc3cccc(Cl)c3)C21` (stereo not given), the IC50 is 8.52 µM.
With `COc1ccc2c(c1OC)C(=O)N1c3ccccc3C(=O)N(c3ccc(C)cc3)C21` (stereo not given), the IC50 was 3.03 µM.
Consider `COc1ccc2c(c1OC)C(=O)N1c3ccccc3C(=O)N(c3ccccc3)C21` (stereo not given), for which the half-maximal inhibitory concentration (IC50) was 5.09 µM.
As for `COc1ccc(NC(=O)c2cc(-c3cc(OC)c(OC)c(OC)c3)nc3ccccc23)cc1`, the figure is > 79 µM (inactive).
As for `CCN(CC(=O)Nc1ccc(OC)cc1)C(=O)c1cc(-c2cc(OC)c(OC)c(OC)c2)nc2ccccc12`, the figure is 22.6 µM (inactive).
For `COc1ccc2c(c1OC)C(=O)N1c3ccccc3C(=O)N(c3cccc(F)c3)C21` (stereo not given), the concentration for half-maximal inhibition (IC50) was 13.9 µM.
On to `COc1ccc2c(c1OC)C(=O)N1c3ccccc3C(=O)N(c3ccc(Br)cc3)C21` (stereo not given), for which the IC50 was 1.95 µM.
On to `COc1cc(-c2cc(C(=O)Nc3ccccc3)c3ccccc3n2)cc(OC)c1OC`, for which the IC50 was 8.04 µM.
For the molecule `COc1cccc(N2C(=O)c3ccccc3N3C(=O)c4c(ccc(OC)c4OC)C23)c1` (stereo not given), the 50% inhibitory concentration (IC50) is 15.6 µM.
For `COc1cc(-c2cc(C(=O)Nc3cccc(F)c3)c3ccccc3n2)cc(OC)c1OC` the value was > 79 µM (inactive); for `COc1ccc2c(c1OC)C(=O)N1c3ccccc3C(=O)N(c3ccc(C(C)(C)C)cc3)C21` (stereo not given), > 79 µM (inactive).
Take `COc1ccc(-c2cc(C(=O)Nc3cccc(C(C)=O)c3)c3ccccc3n2)cc1OC`: the IC50 was 19.8 µM (inactive).
Turning to `COc1ccc2c(c1OC)C(=O)N1c3ccccc3C(=O)N(c3cccc(C(F)(F)F)c3)C21` (stereo not given), the IC50 is 19.8 µM.
With `COc1cccc(CNC(=O)c2cc(-c3cc(OC)c(OC)c(OC)c3)nc3ccccc23)c1`, the IC50 was 12.2 µM.
Take `CCN(CC(=O)Nc1ccc(OC)cc1)C(=O)c1cc(-c2cccs2)nn1-c1ccccc1`: the IC50 is 8.33 µM and 9.6 µM.
As for `COc1cc(-c2cc(C(=O)Nc3cccc(C(C)=O)c3)c3ccccc3n2)cc(OC)c1OC`, the figure is 7.15 µM and 10.3 µM.
On to `COc1cc(-c2cc(C(=O)Nc3cccc(C(C)=O)c3)c3cc(Cl)ccc3n2)cc(OC)c1OC`, for which the IC50 was > 79 µM (inactive).
For `COc1cccc(-c2cc(C(=O)Nc3cccc(C(C)=O)c3)c3ccccc3n2)c1`, the IC50 was 9.47 µM.
`COc1ccc2c(c1OC)C(=O)N1c3ccccc3C(=O)N(c3cccc(Br)c3)C21` (stereo not given): the half-inhibitory concentration (IC50) is 3.64 µM and 34.8 µM (inactive).
